The values below come from ChEMBL document CHEMBL1143783, “In vitro biotransformations of the prostaglandin D2 (DP) antagonist MK-0524 and synthesis of metabolites” (Bioorg Med Chem Lett, 2007).

This data set concerns Plasma. The data set can be described thus: Stability in rat plasma. The data set is classed as ADME, cell-free.

Molecules are shown by their SMILES.

Regarding `CS(=O)(=O)c1cc(F)cc2c3c(n(Cc4ccc(Cl)cc4)c12)[C@@H](CC(=O)O)C[C@@H]3O`, the Stability is < 5%.

For `CS(=O)(=O)c1cc(F)cc2c3c(n(Cc4ccc(Cl)cc4)c12)[C@@H](CC(=O)O)C[C@H]3O`, the Stability is reported as < 5%.
